In one series the test system is Caco-2 cell monolayers. Put plainly: Permeability of SAMe across Caco-2 cell monolayers with propyl gallate (Example 3). The settings on record: for apparent permeability coefficient Papp, apical to basolateral / apparent permeability coefficient Papp, basolateral to apical: SAMe salt alone. The method, then:
The Caco-2 cell line is derived from a human colorectal carcinoma and is widely used for in vitro cell culture models for the study of gastrointestinal drug absorption (Stewart, B., (1995) Pharm. Res. 12:693). In these models, pure cell lines are grown on a semi-permeable membrane. Drug formulations are placed on the apical or basolateral side of the cell monolayer and transport is determined via measurement of drug concentrations on the other side of the membrane.
The Caco-2 cell line utilized here was from the American Type Culture Collection (ATCC). Caco-2 cells are grown in Dulbecco's modified Eagle's medium (DMEM, Gibco) supplemented with 20% FBS (fetal bovine serum, Gibco), 100 uM non-essential amino acids (NEAA, Gibco) and 2 mM L-glutamine (Gibco). A Beckton Dickinson BIOCOAT® HTS Caco-2 Assay System Kit was used resulting in 6.6×10^5 cells/cm^2 seeding density (BIOCOAT is a registered trademark of Collaborative Biomedical Products, Inc., Bedford, Massachusetts, USA). The cells used in transport studies were grown for 3 days before the experiments. The culturing conditions were 37° C. in an atmosphere of 5% CO2 and 100% humidity.
A 2 mM aqueous solution of SAMe disulfate tosylate was added on the apical or basolateral side according to the manufacturer's procedure for the Caco-2 kit.
The permeability (Papp) of SAMe is calculated using the following formula: […]
Where dQ/dt is the rate of permeation, Co is the initial concentration of test agent, and A is the area of the monolayer.

Series [1] is described as follows: PAMPA permeability of SAMe with and without propyl gallate (Example 4). Type of series: in vitro ADME. Particulars: for Average Effective Permeability: SAMe 2 mM, 5 hr. The method, then: Using a PAMPA (parallel artificial membrane permeability assay) model, the permeability of SAMe was measured in the presence and absence of propyl gallate.
PAMPA methods were used to determine the permeability of substances from a donor compartment, through a lipid-infused artificial membrane into an acceptor compartment. A multi-well microtitre plate was used for the donor and a membrane/acceptor compartment is placed on top. At the beginning of the test, SAMe disulfate tosylate (with or without different concentrations of propyl gallate as indicated in Table 2 below) was added to the donor compartment, and the acceptor compartment remained drug-free. After an incubation period, the compartments were separated and the amount of SAMe was measured in each compartment. Mass balance allows calculation of SAMe that remains in the membrane.
(In general: In PAMPA a lipid-coated filter parts donor from acceptor wells.)

The conditions of series [2]: background statement; cited from earlier work.
Series [3] can be described thus: Beagle pharmacokinetics of SAMe tablets with various doses of propyl gallate (Example 6). Particulars: for AUC(0-inf.) ± SD / AUC(0-t) / Cmax average of individuals / T1/2 ± SD / Tmax ± SD: oral, fasted beagles. The method, then:
Tablets comprising SAMe and various amounts of propyl gallate were generated by mixing S-adenosyl-L-methionine disulfate tosylate granules (equivalent to 400 mg of SAMe ion) with the various amounts of propyl gallate listed in Table 4 below. Each mixture was pressed into a tablet and coated followed by dissolution profiling and in vivo pharmacokinetic analysis using beagle dogs.
For in vivo studies, fasted male beagle dogs (7-10 kg) were used as described above. Each group (6 dogs for SAMe/propyl gallate and 6 dogs for the SAMe control lacking propyl gallate) were dosed with a single orally administered enteric coated tablet, under fasted conditions, followed by 5 mL of purified water orally with a syringe to facilitate swallowing. Pharmacokinetic blood samples (2 mL each) for SAMe analysis were collected from the jugular vein using the following time points: pre-dose, 20 and 40 minutes, 1, 1.5, 2, 3, 4, 6, and 8 hours after treatment. The venipuncture blood samples were collected into tubes containing the anticoagulant K2-EDTA, and stored on wet ice pending processing. Following collection, samples were centrifuged (at 4° C.) to separate the plasma fraction from the blood cells. The resulting plasma fraction was recovered and stored frozen (at −80° C.) using polypropylene tubes pending bioanalytical analysis.
The concentration of SAMe in dog plasma was determined using the well established LC/MS/MS method. This method employs stable-isotope dilution liquid chromatography-electrospray […] tandem mass spectrometry (LC-ESI-MS/MS) to determine SAMe and SAH in plasma. The analysis used to calculate the main pharmacokinetic parameters (Cmax, Tmax and AUC) was conducted using GraphPad Prism® 5 software.

Series [4] is described as follows: Plasma SAMe in beagles after tablets of SAMe co-formulated with alkyl gallates (Example 1). Type of series: in vivo, Beagle dogs. Particulars: single enteric coated tablet, 400 mg SAMe ion co-formulated with 25 mg gallic acid ester, fasted male beagles, FIG. 1. The method, then:
Tablets comprising SAMe and various alkyl gallates of different chemical structure were generated by mixing SAMe with either methyl gallate, ethyl gallate, butyl gallate, isobutyl gallate, isoamyl gallate or octyl gallate (see structures below). Tablets were then administered to Beagle dogs and blood samples were withdrawn over time. Analysis of concentrations of SAMe in plasma was used to compare the effects of these gallic acid esters on the uptake of orally administered SAMe in the blood.
Tablets were generated by mixing 400 mg SAMe ion (from SAMe disulfate tosylate) with 25 mg gallic acid ester along with excipients (microcrystalline cellulose, sodium starch glycolate, silicon dioxide, and magnesium stearate) to make up the ˜1025 mg tablet. A commercial seal coat and then a commercial enteric coat was applied to the tablets prior to dissolution testing. Detailed dissolution profiling was performed according to USP standards at either pH 6.8 or 6.0 on each set of tablets to ensure that adequate dissolution was achieved prior to in vivo pharmacokinetic analysis.
The study protocol was approved by the institution's Animal Care Committee, and all animals were cared for according to regulations proposed by Agriculture Canada and the USDA.
Ten different formulations were tested in the present study. 400 mg SAMe co-formulated with 25 mg propyl gallate was compared to: SAMe control tablets (i.e., with no propyl gallate); SAMe tablets co-administered with separate 25 mg propyl gallate tablets; a commercially available SAMe product (400 mg); or 400 mg SAMe with 25 mg of either methyl gallate, ethyl gallate, butyl gallate, isobutyl gallate, isoamyl gallate or octyl gallate.

Series [5] can be described thus: Plasma SAMe in beagles after capsules of SAMe with gallate-related molecules (Example 2). Type of series: in vivo, Beagle dogs. The settings on record: single capsule, 100 mg SAMe ion with 100 mg agent, versus BHT, propyl paraben and gallic acid, FIGS. 2A and 2B. The method, then: BHT, propyl paraben and propyl gallate are food-grade antioxidants which have often been used in combination. […] The capsules also contained additional excipients (Microcrystalline cellulose, Sodium Starch Glycolate, Colloidal Silicon Dioxide, and Magnesium Stearate). Capsules were manually filled and in some embodiments, a layer of commercial seal coat was applied to the capsules using a fluid bed coater. Beagle dogs were administered a single orally delivered dose as described above.

Where [6] appears, read: control tablet 400 mg SAMe, 0 mg Propyl Gallate.
Where [7] appears, read: tablet 400 mg SAMe, 6.25 mg Propyl Gallate.
The mark [8] stands for this setting: tablet 400 mg SAMe, 25 mg Propyl Gallate.
[9] abbreviates: tablet 400 mg SAMe, 100 mg Propyl Gallate.

`C[S+](CC[C@H](N)C(=O)[O-])C[C@H]1O[C@@H](n2cnc3c(N)ncnc32)[C@H](O)[C@@H]1O.O=S(=O)(O)CCCCS(=O)(=O)O` (stereo partly drawn) [SAMe 1,4 butanedisulfonate]: in the series on Caco-2 cell monolayers, the “apparent permeability coefficient Papp, apical to basolateral” value is 0.5 ×10⁻⁶ cm/s and the “apparent permeability coefficient Papp, basolateral to apical” value is 0.6 ×10⁻⁶ cm/s.

Take `C[S+](CC[C@H](N)C(=O)[O-])C[C@H]1O[C@@H](n2cnc3c(N)ncnc32)[C@H](O)[C@@H]1O` (stereo partly drawn) [SAMe, S-adenosyl-L-methionine]: the “transport of SAMe across the PAMPA membrane” value in series [1] is given as “essentially no transport”. Also, the entries for the “Average Effective Permeability” value in series [1] (Propyl Gallate 0 mM), in series [1] (Propyl Gallate 0.2 mM) and in series [1] (Propyl Gallate 2 mM) were 0.42 ×10⁻⁶ cm/s, 0.2 ×10⁻⁶ cm/s and 0.48 ×10⁻⁶ cm/s, respectively. In series [2], the “uptake of exogenous SAMe” value is reported as less than 5%. Further, the “AUC(0-inf.) ± SD” value in series [3] (setting [6]) is given as 15,186 ± 6,831 hr*ng/mL; in series [3] (setting [7]), 21,734 ± 9848 hr*ng/mL; in series [3] (setting [8]), 25,159 ± 13,033 hr*ng/mL; in series [3] (setting [9]), 34,305 ± 18,484 hr*ng/mL. Besides, the “AUC(0-t)” value in series [3] (setting [6]) is listed as 14,756 hr*ng/mL; in series [3] (setting [7]), 21,395 hr*ng/mL; in series [3] (setting [8]) it was 24,847 hr*ng/mL; in series [3] (setting [9]), 34,078 hr*ng/mL. Further, the “Cmax average of individuals” value is recorded as 6731 ng/mL in series [3] (setting [6]), 11,269 ng/mL in series [3] (setting [7]), 15,333 ng/mL in series [3] (setting [8]) and 18,700 ng/mL in series [3] (setting [9]). The “T1/2 ± SD” value in series [3] (setting [6]) is 1.4 ± 0.4 h; in series [3] (setting [7]), 1.4 ± 0.5 h; in series [3] (setting [8]) it was 1.5 ± 0.4 h; in series [3] (setting [9]) it was 1.0 ± 0.2 h. In addition, the “Tmax ± SD” value in series [3] (setting [6]) turned out to be 1.8 ± 0.7 h; in series [3] (setting [7]), 1.4 ± 0.8 h; in series [3] (setting [8]), 1.2 ± 0.5 h; in series [3] (setting [9]) it was 1.6 ± 0.7 h. In the series on Caco-2 cell monolayers (Caco-2), the “Average Permeability Coefficient Apical→Basolateral” value is 1.6 ×10⁻⁶ cm/s. Besides, the “Average Permeability Coefficient Basolateral→Apical” value in the series on Caco-2 cell monolayers (Caco-2) came out at 1.7 ×10⁻⁶ cm/s.

With `CCCCOC(=O)c1cc(O)c(O)c(O)c1` [butyl gallate], the “maximum SAMe plasma concentration (Cmax), uptake into the plasma” value (“maximum SAMe plasma concentration (Cmax)” below) in series [4] is “did not result in pharmacokinetics even close to that of SAMe-propyl gallate formulations”.

With `CCOC(=O)c1cc(O)c(O)c(O)c1` [ethyl gallate], the “maximum SAMe plasma concentration (Cmax)” value in series [4] is “superior uptake into the plasma”.

As to `CC(C)CCOC(=O)c1cc(O)c(O)c(O)c1` [isoamyl gallate], the “maximum SAMe plasma concentration (Cmax)” value in series [4] was “superior uptake into the plasma”.

As to `CCCCCCCCOC(=O)c1cc(O)c(O)c(O)c1` [octyl gallate], the “maximum SAMe plasma concentration (Cmax)” value in series [4] is “superior uptake into the plasma”.

With `CCCOC(=O)c1cc(O)c(O)c(O)c1` [propyl gallate], the “effect of propyl gallate on SAMe transport across the PAMPA membrane” value in series [1] (propyl gallate at 2.0 mM) is recorded as “no effect on SAMe transport”. Besides, the “maximum SAMe plasma concentration (Cmax)” value in series [4] was “superior uptake into the plasma”. Also, the “relationship of propyl gallate dose with SAMe uptake in vivo” value in series [3] (dog, in vivo) is given as “dose-response relationship with SAMe uptake in vivo”. In series [5], the “plasma SAMe Cmax and AUC, SAMe uptake into the blood” value was “superior and surprising ability of propyl gallate to increase SAMe uptake into the blood”.

Consider “S-adenosyl-L-methionine disulfate tosylate [SAMe disulfate tosylate]”, for which, in the series with Caco-2 cell monolayers, the “apparent permeability coefficient Papp, apical to basolateral” value was determined as 0.41 ×10⁻⁶ cm/s and the “apparent permeability coefficient Papp, basolateral to apical” value was determined as 0.5 ×10⁻⁶ cm/s.

Values taken from patent US12303524B2, “Compositions comprising S-adenosylmethionine and a gallic acid ester” (MSI-195 HOLDINGS, LLC, priority 2012, dated 2025).
